pEC50: −log10 of the molar value.
Columns and labels:
[1] = target: T1, LXRα protein (Homo sapiens, UniProt Q13133); test: Limited protease protection assay (chymotrypsin) of [35S]-labelled Flag-LXRα; format: binding; settings: increasing concentrations of chymotrypsin, SDS-PAGE and autoradiography
T1 construct: made in house; host or cells: in vitro synthesis (cell-free translation)
T1 sequence (Q13133 1-447): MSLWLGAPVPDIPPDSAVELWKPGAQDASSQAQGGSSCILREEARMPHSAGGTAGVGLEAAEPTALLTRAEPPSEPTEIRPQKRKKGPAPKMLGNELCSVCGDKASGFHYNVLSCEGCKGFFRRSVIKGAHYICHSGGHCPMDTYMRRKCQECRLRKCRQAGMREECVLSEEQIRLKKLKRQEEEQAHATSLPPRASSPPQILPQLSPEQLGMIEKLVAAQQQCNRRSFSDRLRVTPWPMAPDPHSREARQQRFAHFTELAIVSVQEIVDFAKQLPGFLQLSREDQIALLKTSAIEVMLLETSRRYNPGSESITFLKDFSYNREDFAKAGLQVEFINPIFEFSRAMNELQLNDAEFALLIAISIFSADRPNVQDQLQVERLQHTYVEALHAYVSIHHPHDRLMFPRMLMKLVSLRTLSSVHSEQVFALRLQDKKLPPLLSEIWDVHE
Method: FIG. 4, Protease protection of LXRα with 22(R)-hydroxycholesterol. [^35S]-labelled LXRα protein was incubated with (A) ethanol (ETOH) control or (B) 22(R)-hydroxycholesterol, subjected to protease digestion with increasing amounts of chymotrypsin, and analyzed by SDS-PAGE and autoradiography.
In vitro synthesized [^35S]-labelled Flag-LXRα protein was subjected to protease digestion with α-chymotrysin. For these studies, LXRα with a Flag epitope fused to the amino terminus was used.
The unavailability of radiolabelled LXRα activators prevents direct ligand binding analysis. To address the possibility that 22(R)-hydroxycholesterol interacts with LXRα, a limited protease protection assay was performed (FIG. 4). In this experiment, several proteolytic fragments were generated when LXRα protein was incubated with increasing concentrations of the protease, chymotrypsin. […] The presence of a specific ligand-protected ˜30 kDa fragment has also been observed during similar analyses with other nuclear receptors. Thus, these protease protection studies support the finding that 22(R)-hydroxycholesterol interacts with LXRα.

[2] = target: T2, LXRα (Homo sapiens, UniProt Q13133); test: LXRα cotransfection assay with TK-LXREx3-LUC reporter in CV-1 cells; format: cell-based; parameters: expressed in transfected cells; host or cells: CV-1 monkey kidney cells
T2 sequence (Q13133 1-447): T1 sequence (Q13133 1-447)
T2 sequence (P19793 1-462 partner): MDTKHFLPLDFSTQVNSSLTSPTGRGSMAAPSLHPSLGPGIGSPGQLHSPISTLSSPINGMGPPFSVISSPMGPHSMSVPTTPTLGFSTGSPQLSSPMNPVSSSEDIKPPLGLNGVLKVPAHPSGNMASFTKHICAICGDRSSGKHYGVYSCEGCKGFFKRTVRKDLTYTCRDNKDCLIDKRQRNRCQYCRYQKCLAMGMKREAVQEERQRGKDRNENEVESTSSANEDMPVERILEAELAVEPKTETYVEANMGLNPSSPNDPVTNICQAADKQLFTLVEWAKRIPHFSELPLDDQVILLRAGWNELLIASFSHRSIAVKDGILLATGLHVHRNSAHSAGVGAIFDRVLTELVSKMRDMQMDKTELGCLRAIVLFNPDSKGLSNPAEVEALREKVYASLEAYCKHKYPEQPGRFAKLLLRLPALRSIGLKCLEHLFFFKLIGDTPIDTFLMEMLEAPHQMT
Method: FIG. 1 Human LXRα is activated by gonad sterols. (A) Transactivation of LXRα ligand binding domain (LBD) with testis extract. CV-1 cells were cotransfected with a GAL4 responsive luciferase reporter plasmid and an expression plasmid encoding no receptor or a chimeric receptor composed of the GAL4 DNA binding domain fused to the LXRα ligand binding domain (LBD) (GAL4-LXRα)^3. After transfection, cells were treated with ethanol (ETOH) or 1% of the concentrated testis extract. (B) Transactivation of LXRα with follicular fluid meiosis activating substance (FF-MAS). CV-1 cells were cotransfected with an LXRα responsive reporter plasmid and the receptor expression plasmids for LXRα alone or with RXRα. After transfection, cells were treated with ETOH or […] FF-MAS.
FIG. 2 LXRα is activated by a specific subset of oxysterols. (A) Specificity of LXRα activators. Shown is a representative group from 70 compounds evaluated for LXRα activity (10 μM) in cotransfection assays as described in FIG. 1B. […] (B) The the structure-activity relationship of LXRα activators. Data compiled from FIG. 2A and other experiments (not shown) reveal that the position of the hydroxyl on the cholesterol backbone is a determinant of LXRα activity. […] Dose response curves for LXRα activators were generated in CV-1 cell cotransfection assays as described in FIG. 1B.
Organic extraction of breeding bull testis was performed as described^6. Briefly, 12 grams of lyophilized testis was extracted with N-heptane and lipids were concentrated by roto-evaporation. Aliquots representing 1% of this material were assayed. FF-MAS was synthesized as described^18. Transient transfections in CV-1 monkey kidney cells were performed in triplicate in 48-well plates as described^3 with media containing 5% cabosil-treated calf bovine serum.
Transfections were performed in FIG. 1A using 80 ng of TK-MH100x4-LUC reporter and 30 ng of CMX-GAL4-hLXRα expression plasmids per well; and in FIG. 1B using 50 ng of TK-LXREx3-LUC reporter and 25 ng of CMX-hLXRa alone or with 25 ng CMX-hRXRa expression plasmids per well. Candidate ligands were dissolved in ethanol and added 8 hours post-transfection. As an internal standard, 50 ng of CMX-β gal was included in all transfections. All plasmid constructs and determinations of luciferase and β-galactosidase activities have been described^3. To construct CMX-LXRα, the hLXRα cDNA insert was excised from the plasmid pXR2DRV (Willy, et al., 1995, Genes Dev. 9: 1033-1045) with Kpnl and BamHI and was ligated into the expression vector CMX. CMX-βgal was constructed by ligating the β-galactosidase gene into the expression vector CMX. Chimeric Gal4-receptor expression plasmid (CMX-GAL4-LXRα) was constructed by first ligating the GAL4 portion of pSC424 (Sadowski, I. and M. Ptashne, 1989, Nucleic Acids Res. 19: 7539-7530) into the HindIII/SacI sites of pCMX (Umesono, et al., 1991, Cell 65: 1255-1266) to create pCMX-GAL4. This vector contains the CMV promoter fused to the coding sequence for GAL4 (1-147), followed by inframe polylinker cloning sites and translational stop codons. The cDNAs encoding the ligand-binding domain (LBD) of hLXRα (amino acids 166-447) was then ligated into the polylinker to create CMX-GAL4-LXRα.
Reporter plasmids for these studies were constructed by ligating the appropriate oligonucleotides into the HindIII site of the TK-LUC vector to create TK-LXREx3-LUC, TK-MH100x4-LUC (Kang, T., et al., 1993, J. Biol Chem. 268: 9629-9635). The sense strand of the LXRE oligonucleotide used to construct the reporter plasmid TK-LXREx3-LUC was 5′agctt[…]3′ (SEQ. ID. NO. 1). All constructs were verified by sequencing. Data are presented as relative light units (RLUs) and represent the mean of triplicate assays±standard error. […]

CC(C)CC[C@@H](O)[C@@H](C)[C@H]1CC[C@H]2[C@@H]3CC=C4C[C@@H](O)CC[C@]4(C)[C@H]3CC[C@]12C [22(R)-hydroxycholesterol] was tested, and the “ligand-protected 30 kDa chymotrypsin fragment of LXRα” value [1] was “consistently observed” and the pEC50 [2] was 5.82.
